Data published in patent US20100310459A1, “Targeted Detection of Dysplasia In Barrett's Esophagus With A Novel Fluorescence-Labeled Polypeptide” (THE REGENTS OF THE UNIVERSITY OF MICHIGAN, priority 2009, published 2010).
One block for each substance: values may come before it. Primed or numbered codes have the meaning given here. Where no end group is shown, it is not given here. FITC′ = not defined here

How the values were obtained:
0E-21 (squamous) cells = assay: Target peptide binding to cell surface targets; assay type: cell-based; settings: 100 μM
[1] = tested on: SEG1 (adenocarcinoma) cells; assay: Target peptide binding to cell surface targets; assay type: cell-based; settings: 100 μM
Protocol: Identification of plasma membrane targets on adenocarcinoma cells that affinity bind to “ASYNYDA” (SEQ ID NO: 5). The carboxyl end of the target peptide was linked to affinity column beads using EDC chemistry. Seg-1 cells were grown to confluency, lysed by sonification, and fractionated by centrifugation. The resulting membrane fractions were applied to the target peptide labeled column and specific binding proteins were eluted. These proteins were separated and collected in fractions by a reverse phase column using a Beckman PF 2D liquid chromatography apparatus. The protein fractions were spotted on a nitrocellulose coated micro array printer slide and probed with the FITC-labeled target peptide. The fluorescence intensities at each spot were quantified with an Axon Imager. Protein fractions with the highest intensity were trypsinized, and proteomic analysis was performed using a Finnigan LTQ linear ion trap mass spectrometer. The protein identities were confirmed using an International Protein Index (IPI) database search, utilizing the SEQUEST program and with open source Xtandem and peptide and protein prophet software. […] See Table 1 below for list of targets identified. All identified proteins were either an exact match or >0.99.

[2] = tested on: Q-hTERT (intestinal metaplasia) cells; assay: Target peptide binding to cell surface targets; assay type: cell-based; settings: 100 μM
[3] = tested on: OE33 esophageal adenocarcinoma cells; assay: Competitive inhibition assay (peptide vs SNFYMPL-phage); assay type: cell-based, human; settings: peptide at 100, 200, and 400 μM
Protocol: Competitive inhibition assay. The OE33 and Q-hTERT cells were detached and blocked. […] pfu of SNFYMPL-phage was incubated with OE33 cells (1×10^7) or Q-hTERT cells (1×10^7), ‘SNFYMPL-GGGSK’ peptide or scrambled peptide ‘NLMPYFS-GGGSK’ were added into cell-phage mixture at the concentration of 100, 200, and 400 μm for competition with the phage. After washing three times with PBS/0.1% (v/v) Tween-20 and one time with 0.2 M glycine, pH 2.2/0.1% BSA for two minutes, the bound phage were recovered and titered. Every sample was carried out in triplicate. The amount of bound phage in every sample was […].

[4] = tested on: Q-hTERT (intestinal metaplasia) cells; assay: Fluorescence images for peptide binding on culture cells; assay type: cell-based
Protocol: (§1) Fluoresence images for peptide binding on culture cells. The OE33 and QhTERT cells were grown in chamber slides to 80% confluence. Blocking of non-specific binding to these cells was performed by adding 200 μl of 1% BSA diluted in PBS for 30 min. The cells were then incubated with […] of the candidate FITC-labeled peptide in serum free media for 10 minutes at room temperature. The cells were washed 3 times using 200 μL PBS/0.5% TWEEN 20 in room temperature. The cells were fixed in ice cold 4% praformaldehyde for 5 minutes. The cells were then stained with Vectashield mounting medium containing DAPI. Fluorescence images were collected with a confocal microscope (Nikon 1000) at 200×. The fluorescence intensity from the cells in 3 images was averaged to assess for peptide binding using NIH Image J software.

[5] = tested on: OE33 (esophageal adenocarcinoma) cells; assay: as above; assay type: cell-based, human; settings: for intensity associated with binding to the cell surface: OE33
Protocol: as §1

[6] = tested on: Human endoscopic mucosal resection (EMR) specimens of esophageal mucosa; assay: Fluorescence-labeled polypeptide binding to endoscopic mucosal resection (EMR) specimens; settings: for mean fluorescence intensity value: 100 μm, 5 minutes
Protocol: Human endoscopic mucosal resection (EMR) specimens were freshly taken from regions of suspected dysplastic mucosa. Each specimen was incubated with the FITC-labeled polypeptide of SEQ ID NO: 1 at a concentration of 100 μm for 5 minutes. Ink was used to mark the 12 o'clock position for orientation. White light stereo microscope (Olympus SZX16) images were obtained with an overlying 20×20 mm grid to register the histology. Fluorescence images were obtained at an exposure of 12 ms. The tissue was then fixed in formalin. An expert GI pathologist sectioned the specimens along cross-sections at ˜2 mm intervals longitudinally and interpreted the histopathology while blinded to the fluorescence images. The mean intensity of the fluorescence images in each 1 mm interval was measured using the NIH Image J processing software and compared with histology.

Substance: ASYNYDA
binding to cell surface targets (0E-21 (squamous) cells): lack of binding
binding to cell surface targets [1]: preferential binding
binding to cell surface targets [2]: lack of binding

Substance: NLMPYFS-GGGSK (NLMPYFSGGGSK) [scrambled control peptide, reference compound]
inhibition of SNFYMPL-phage binding to OE33 cells [3]: no inhibition ability
inhibition of SNFYMPL-phage binding to OE33 cells ([3]; listed as scrambled peptide ‘NLMPYFS’): did not inhibit

Substance: SNFYMPL-GGGSK
inhibition of SNFYMPL-phage binding to OE33 cells [3]: could obviously inhibit
inhibition of SNFYMPL-phage binding to OE33 cells ([3]; listed as ‘SNFYMPL’ peptide): significantly inhibited the SNFYMPL-phage binding to the OE33 cells in a concentration dependent manner

mean fluorescence intensity value ([6]; dysplasia (n=69 sites)): 56.5 gray levels
mean fluorescence intensity value ([6]; gastric mucosa (n=35 sites)): 24.1 gray levels
mean fluorescence intensity value ([6]; intestinal metaplasia (n=66 sites)): 42.1 gray levels
binding to Barrett's dysplasia ([6]; mucosal surface areas on the centimeter scale): Selective binding
mean fluorescence intensity value ([6]; squamous (n=107 sites)): 27.1 gray levels
Substance: SNFYMPL-GGGSK-FITC (SNFYMPLGGGSK-{FITC′}) [FITC conjugated at the C-terminus of SNFYMPL via the GGGSK linker]
intensity associated with binding to the cell surface ([4]; FIG. 3 legend): 25.7±2.5
intensity associated with binding to the cell surface ([4]; NIH Image J): 25.7 mean grey value
intensity associated with binding to the cell surface ([5]; FIG. 3 legend): 69±18
intensity associated with binding to the cell surface ([5]; NIH Image J): 69 mean grey value
cells with peptide bound to the plasma membrane ([5]; OE33 cells, FITC-labeled peptide, 10 minutes): > 90%
